# Measurements as given in patent US20260263576A1, “DNA VACCINE TARGETING OVEREXPRESSED ANTIGENS IN COLORECTAL CANCER” (UNIVERSITY OF WASHINGTON, priority 2023, published 2026).
# Legend:
# [1] = tested on: tumor infiltrating lymphocytes; experiment: Immunophenotyping of tumor infiltrating lymphocytes, ApcMin/+ mice; format: in vivo; conditions: APC^Min/+
# Description: (§1) Immunophenotyping. After removing up to 10 polyps in ApcMin/+, and 1-2 polyps in AOM treated mice, remaining tumors were removed from the intestinal tissue with forceps and applied to a 70 μm filter, washed through with flow cytometry buffer (PBS/1% FBS/2 mM EDTA) and red cells lysed. […] Prior to surface staining, cells were stained with Fixable viability dye 450 (eBiosciences; 1:1000) in PBS and then washed in flow cytometry buffer. Intracellular staining was performed using the FOXP3 buffer set (Thermo Fisher Scientific). Antibodies were obtained from BD Bioscience, Biolegend or Thermo Fisher Scientific. […] Analysis was performed on FACS Canto RUO and data analyzed using FlowJo software (BD Biosciences). […] Results are reported as a percentage of total cell number or a percentage of a specific cell population.
# [2] = tested on: tumors from Apc^Min/+ mice; experiment: Immunohistochemistry of tumors (CD8, PD-L1), ApcMin/+ mice; format: in vivo; conditions: naproxen intermittently or continuously, p<0.001
# Description: Immunohistochemistry. Tumors removed from the intestine were covered with Tissue-Tek O.C.T Compound in a cryomold and stored at −80° C. Frozen blocks were sectioned and fixed with 75% acetone/25% methanol for 5 minutes. The slides were washed thrice with PBS and 10% goat serum was added for 1 hour at room temperature followed by an anti-mouse PD-L1 (abcam; clone: MIH6; 1/100 dilution) or anti-mouse CD8 (AbD Serotec; clone KT15; 1/200 dilution) overnight at 4° C. After washing, the slides were incubated with AlexaFluor 488 anti-rat IgG (abcam; 1:1000 dilution) for 1 hour at room temperature. Positive cells were counted in three 20× microscopic fields and expressed as the mean percent of total cells.
# [3] = tested on: tumor infiltrating lymphocytes; experiment: Immunophenotyping of tumor infiltrating lymphocytes, AOM-treated mice; format: in vivo
# Description: as §1
# [4] = tested on: splenocytes stimulated with the vaccine peptide pool; experiment: Antigen-specific IFN-γ ELISPOT of splenocytes, ApcMin/+ mice; format: in vivo; conditions: any regimen of naproxen, adjuvant only
# Excerpt: (§2) Analysis of peptide-specific T-cell responses. […] Data are reported as pg/ml.
# [5] = tested on: Granzyme B; experiment: Granzyme B ELISA of ELISPOT supernatant, ApcMin/+ mice; format: in vivo
# Excerpt: as §2
# [6] = tested on: human PBMC; experiment: Th ratio from IFN-γ and IL-10 ELISPOT, human PBMC screening; format: cell-based
# Description: Vaccine. The vaccine consisted of the Th1-selective epitopes CDC25B-p132-156, COX2-p76-93, COX2-p276-295, EGFR-p880-895, and p962-976. The Th selective epitopes were determined in human PBMC screening by calculating the ratio of the product of the mean magnitude and percent incidence of response for IFN-γ and IL-10 ELISPOT assays (IFN-γ incidence X magnitude/IL-10 incidence X magnitude). Ratios greater than 7 defined Th1-selective epitopes (See Table 4).
molecule,measurement,setting,value
COc1ccc2cc([C@H](C)C(=O)O)ccc2c1 [naproxen],% CD4 of CD3+,[1]; CON naproxen,30%
same,% CD8 of CD3+,[1]; CON naproxen,35%
same,% CM of CD4+,[1]; CON naproxen,14%
same,% CM of CD8+,[1]; CON naproxen,4%
same,% EM of CD4+,[1]; CON naproxen,60%
same,% EM of CD8+,[1]; CON naproxen,48%
same,% Foxp3 of CD4,[1]; CON naproxen,4%
same,% GATA3 of CD4+,[1]; CON naproxen,5%
same,% MDSC,[1]; CON naproxen,1%
same,% PD1 of CD4+,[1]; CON naproxen,3%
same,% PD1 of CD8+,[1]; CON naproxen,7%
same,% Tbet of CD3,[1]; CON naproxen,9%
same,% CD4 of CD3+,[1]; INT naproxen,14%
same,% CD8 of CD3+,[1]; INT naproxen,15%
same,% CM of CD4+,[1]; INT naproxen,18%
same,% CM of CD8+,[1]; INT naproxen,2%
same,% EM of CD4+,[1]; INT naproxen,41%
same,% EM of CD8+,[1]; INT naproxen,44%
same,% Foxp3 of CD4,[1]; INT naproxen,2%
same,% GATA3 of CD4+,[1]; INT naproxen,4%
same,% MDSC,[1]; INT naproxen,4%
same,% PD1 of CD4+,[1]; INT naproxen,5%
same,% PD1 of CD8+,[1]; INT naproxen,7%
same,% Tbet of CD3,[1]; INT naproxen,11%
same,tumor cell expression of PD-L1,[2],reduced
same,tumor infiltrating CD8+ T-cells,[2],increased
same,% CD4 of CD3+,[3]; CON naproxen,61%
same,% CD8 of CD3+,[3]; CON naproxen,12%
same,% CM of CD4+,[3]; CON naproxen,6%
same,% CM of CD8+,[3]; CON naproxen,8%
same,% EM of CD4+,[3]; CON naproxen,43%
same,% EM of CD8+,[3]; CON naproxen,52%
same,% Foxp3 of CD4,[3]; CON naproxen,5%
same,% GATA3 of CD4+,[3]; CON naproxen,2%
same,% MDSC,[3]; CON naproxen,6%
same,% PD1 of CD4+,[3]; CON naproxen,3%
same,% PD1 of CD8+,[3]; CON naproxen,4%
same,% Tbet of CD3,[3]; CON naproxen,10%
same,% CD4 of CD3+,[3]; INT naproxen,66%
same,% CD8 of CD3+,[3]; INT naproxen,11%
same,% CM of CD4+,[3]; INT naproxen,6%
same,% CM of CD8+,[3]; INT naproxen,6%
same,% EM of CD4+,[3]; INT naproxen,48%
same,% EM of CD8+,[3]; INT naproxen,53%
same,% Foxp3 of CD4,[3]; INT naproxen,5%
same,% GATA3 of CD4+,[3]; INT naproxen,3%
same,% MDSC,[3]; INT naproxen,6%
same,% PD1 of CD4+,[3]; INT naproxen,4%
same,% PD1 of CD8+,[3]; INT naproxen,4%
same,% Tbet of CD3,[3]; INT naproxen,9%
same,antigen-specific IFN-γ,[4],did not result in increased
same,"Granzyme B levels, in words",[5],did not result in increased
CDC25b-p132-156: peptide IQAASRIIRNEQFAIRRFQSMPVRL (SEQ ID NO: 1),Th ratio (IFN-γ incidence X magnitude/IL-10 incidence X magnitude),[6],186
COX2-p276-295: peptide EVFGLVPGLMMYATIWLREH (SEQ ID NO: 3),Th ratio (IFN-γ incidence X magnitude/IL-10 incidence X magnitude),[6],17
COX-2-p76-93: peptide YILTHFKGFWNVVNNIPF (SEQ ID NO: 2),Th ratio (IFN-γ incidence X magnitude/IL-10 incidence X magnitude),[6],7
